Measured values as given in US20190256509A1, “HISTONE DEMETHYLASE INHIBITORS” (CHRYSALIS, INC., priority 2016, published 2019).

Biological target: T1, KDM5B enzyme (Homo sapiens, UniProt Q9UGL1)
T1 construct: Reaction Biology Corp (named for the assay, not expressly for the enzyme)
Experiment: KDM5B HTRF (TR-FRET) demethylase inhibition assay
Assay type: biochemical
Details: 1.2 nM KDM5B, 30 nM Biotin-H3K4Me3 1-21 substrate, 10 point dose-response
Experimental: Ten point dose-response curves for the compounds of Examples 1-135 were determined using a homogeneous time resolved fluorescence (HTRF) assay (Reaction Biology Corp, Malvern, Pa.). This assay combines fluorescence resonance energy transfer (FRET) with time resolve (TR) measurements (TR-FRET). The KDM5B α-ketoglutarate-dependent demethylase activity is calculated by measuring demethylation of a biotin labeled histone tri-methylated H3K4 substrate using an europium-cryptate (Eu)-labeled antibody donor specific for dimethylated histone H3K4 and a Streptavidin-XL665 acceptor that binds to the biotin group of substrate, and detecting FRET by exciting the reaction mixture at 320 nm and reading dual emissions at 615 nm and 665 nm.
Briefly, compounds disclosed herein were solubilized in DMSO and a series of 10, three-fold serial dilutions were made for each compound in 100% DMSO. The initial starting concentration for the serial dilutions of each compound was 10 μM or 100 μM. Control samples lacking compound, KDM5B enzyme or various reaction components also were prepared and processed in parallel with compound test samples.
An aliquot of each serial dilution of test compound was added to a 384 well plate (Corning Cat #3572) containing 1.2 nM KDM5B enzyme suspended in 50 mM Hepes, pH7.5, 50 mM NaCl, 0.01% Tween 20, 0.1% BSA, and 1% DMSO (final concentrations) in a 10 microliter reaction volume using a LABCYTE ECHO liquid handler. The samples were mixed, subjected to centrifugation and the plate was pre-incubated at room temperature for 15 minutes (min), to which 30 nM Biotin-H3K4Me3 1-21 substrate (Anaspec, Freemont Calif., Cat #64192), 20 μM Fe(II) and 20 μM α-ketoglutarate co-factors, and 100 μM Ascorbate were added to initiate the enzymatic reaction. The reaction mixture was incubated at room temperature for 45 minutes. A 10 μl aliquot of a detection mixture of Eu-labeled anti-histone H3K4Me2 antibody (CisBIO, Bedford Mass., Cat #610AXLB) and Streptavidin-XL665 (CisBIO, Bedford Mass., Cat #610 SAXLB) in 200 mM potassium fluoride and 10 mM EDTA was added and kinetic measurements were read at 5 minute intervals for a period of 30 minutes using an Envision Multiplate Reader (PerkinElmer Model 2102; excitation at 320 nm and emission reads at 615 nm and 665 nm). The IC50 value for each compound was determined from the 665/615 ratio obtained for each 10 point dose-response curve using GraphPad Prism 4 software with a sigmodial dose response.

T1 sequence (Q9UGL1 whole entry): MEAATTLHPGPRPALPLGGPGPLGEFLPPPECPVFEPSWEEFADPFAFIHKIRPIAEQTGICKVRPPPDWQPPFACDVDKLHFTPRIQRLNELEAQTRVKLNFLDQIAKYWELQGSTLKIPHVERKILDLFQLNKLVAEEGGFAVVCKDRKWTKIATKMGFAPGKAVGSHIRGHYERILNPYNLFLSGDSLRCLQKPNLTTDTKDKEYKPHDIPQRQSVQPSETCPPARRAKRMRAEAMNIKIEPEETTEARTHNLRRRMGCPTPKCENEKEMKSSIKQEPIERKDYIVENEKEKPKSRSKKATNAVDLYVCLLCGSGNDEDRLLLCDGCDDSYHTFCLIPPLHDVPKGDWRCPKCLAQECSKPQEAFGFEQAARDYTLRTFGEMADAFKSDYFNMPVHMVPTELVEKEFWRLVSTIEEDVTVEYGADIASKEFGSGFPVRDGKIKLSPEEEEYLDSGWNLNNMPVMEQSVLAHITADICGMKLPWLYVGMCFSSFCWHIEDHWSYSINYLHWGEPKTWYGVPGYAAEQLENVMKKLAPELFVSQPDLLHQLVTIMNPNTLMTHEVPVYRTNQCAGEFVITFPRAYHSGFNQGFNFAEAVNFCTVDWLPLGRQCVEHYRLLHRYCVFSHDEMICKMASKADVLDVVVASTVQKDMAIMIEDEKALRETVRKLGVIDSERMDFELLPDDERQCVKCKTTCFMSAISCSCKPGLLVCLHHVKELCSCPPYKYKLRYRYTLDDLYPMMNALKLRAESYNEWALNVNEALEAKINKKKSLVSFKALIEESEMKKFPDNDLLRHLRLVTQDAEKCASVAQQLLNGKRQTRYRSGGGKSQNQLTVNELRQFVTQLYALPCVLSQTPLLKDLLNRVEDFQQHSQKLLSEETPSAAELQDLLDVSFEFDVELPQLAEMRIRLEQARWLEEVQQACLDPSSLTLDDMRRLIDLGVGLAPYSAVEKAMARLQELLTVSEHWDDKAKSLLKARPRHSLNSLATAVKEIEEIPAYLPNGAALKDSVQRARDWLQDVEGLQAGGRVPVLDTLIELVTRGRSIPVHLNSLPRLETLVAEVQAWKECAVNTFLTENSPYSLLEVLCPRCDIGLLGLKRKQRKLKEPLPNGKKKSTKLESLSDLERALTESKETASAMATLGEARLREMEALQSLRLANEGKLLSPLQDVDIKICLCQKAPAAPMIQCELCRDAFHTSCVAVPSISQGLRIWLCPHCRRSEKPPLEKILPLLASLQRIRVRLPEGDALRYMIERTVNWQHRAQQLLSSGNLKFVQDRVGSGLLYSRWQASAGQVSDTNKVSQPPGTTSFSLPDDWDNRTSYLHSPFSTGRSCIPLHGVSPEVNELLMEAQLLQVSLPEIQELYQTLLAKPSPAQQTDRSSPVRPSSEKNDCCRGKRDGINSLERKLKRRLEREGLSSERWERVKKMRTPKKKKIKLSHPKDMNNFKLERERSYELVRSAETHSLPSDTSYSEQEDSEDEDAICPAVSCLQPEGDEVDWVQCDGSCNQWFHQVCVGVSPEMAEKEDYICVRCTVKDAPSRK

| Structure (SMILES) | IC50 |
| --- | --- |
| O=C(O)c1c(NCc2ccccc2C(F)(F)F)ccc2nccn12 [Example 2] | 500 to 1000 nM |
| O=C(O)c1c(NCc2cc(C(F)(F)F)ccc2Cl)ccc2nccn12 [Example 5] | > 1000 nM |
| O=C(O)c1c(NCc2cc(C(F)(F)F)cc(C(F)(F)F)c2)ccc2nccn12 [Example 6] | > 1000 nM |
| O=C(O)c1c(NCc2ccc(-c3ccccc3)cc2)ccc2nccn12 [Example 7] | > 1000 nM |
| O=C(O)c1c(NCc2cccc(Cl)c2Cl)ccc2nccn12 [Example 9] | > 1000 nM |
| O=C(O)c1c(NCc2c(Cl)cccc2Cl)ccc2nccn12 [Example 10] | > 1000 nM |
| O=C(O)c1c(NCc2ccccc2OC(F)F)ccc2nccn12 [Example 12] | 500 to 1000 nM |
| O=C(O)c1c(NCc2ccc(F)cc2Cl)ccc2nccn12 [Example 13] | ≤ 500 nM |
| O=C(O)c1c(NCc2ccccc2Cl)ccc2nccn12 [Example 15] | 500 to 1000 nM |
| O=C(O)c1c(NCc2cccc(C(F)(F)F)c2F)ccc2nccn12 [Example 16] | > 1000 nM |
| CN1CCN(c2ccc(CNc3ccc4nccn4c3C(=O)O)cc2)CC1 [Example 21] | ≤ 500 nM |
| O=C(O)c1c(NCc2ccc(OC(F)F)cc2)ccc2nccn12 [Example 22] | > 1000 nM |
| O=C(O)c1c(NCc2ccc(N3CCCCC3)cc2)ccc2nccn12 [Example 27] | > 1000 nM |
| O=C(O)c1c(NCc2cccc3ccccc23)ccc2nccn12 [Example 31] | > 1000 nM |
| CN1CCN(c2ccccc2CNc2ccc3nccn3c2C(=O)O)CC1 [Example 32] | ≤ 500 nM |
| Cc1ccc(CNc2ccc3nccn3c2C(=O)O)c(F)c1F [Example 33] | > 1000 nM |
| Cc1ccc(F)c(CNc2ccc3nccn3c2C(=O)O)c1F [Example 35] | > 1000 nM |
| O=C(O)c1c(NCc2c(F)cccc2F)ccc2nccn12 [Example 36] | > 1000 nM |
| O=C(O)c1c(NCc2ccccc2OC(F)(F)F)ccc2nccn12 [Example 37] | 500 to 1000 nM |
| Cc1ccc(F)c(CNc2ccc3nccn3c2C(=O)O)c1Cl [Example 38] | > 1000 nM |

| Structure (SMILES) | IC50 |
| --- | --- |
| O=C(O)c1c(NCc2c(F)cccc2Cl)ccc2nccn12 [Example 39] | > 1000 nM |
| CCOc1ccccc1CNc1ccc2nccn2c1C(=O)O [Example 40] | > 1000 nM |
| O=C(O)c1c(NCc2ccc(C(F)(F)F)cc2F)ccc2nccn12 [Example 41] | 500 to 1000 nM |
| O=C(O)c1c(NCc2cc(C(F)(F)F)ccc2F)ccc2nccn12 [Example 43] | > 1000 nM |
| O=C(O)c1c(NCc2ccccc2-c2ccccc2)ccc2nccn12 [Example 44] | 500 to 1000 nM |
| O=C(O)c1c(NCc2cccc(-c3ccccc3)c2)ccc2nccn12 [Example 52] | > 1000 nM |
| O=C(O)c1c(NCc2ccc(-c3cccs3)cc2)ccc2nccn12 [Example 53] | > 1000 nM |
| O=C(O)c1c(NCc2ccc(Oc3ccc(F)cc3)cc2)ccc2nccn12 [Example 54] | > 1000 nM |
| O=C(O)c1c(NCc2ccc(C(F)(F)F)cc2)ccc2nccn12 [Example 55] | 500 to 1000 nM |
| O=C(O)c1c(NCc2ccc(F)cc2C(F)(F)F)ccc2nccn12 [Example 60] | ≤ 500 nM |
| O=C(O)c1c(NCc2ccc(N3CCOCC3)cc2)ccc2nccn12 [Example 64] | > 1000 nM |
| CCCCc1ccc(CNc2ccc3nccn3c2C(=O)O)cc1 [Example 65] | > 1000 nM |
| O=C(O)c1c(NCc2cc(F)ccc2C(F)(F)F)ccc2nccn12 [Example 67] | ≤ 500 nM |
| Cc1ccc(C(F)(F)F)c(CNc2ccc3nccn3c2C(=O)O)c1 [Example 69] | > 1000 nM |
| Cc1ccc(Cl)c(CNc2ccc3nccn3c2C(=O)O)c1F [Example 70] | > 1000 nM |
| O=C(O)c1c(NCc2c(F)cc(F)cc2F)ccc2nccn12 [Example 71] | 500 to 1000 nM |
| O=C(O)c1c(NCc2ccc(-n3ccnc3)cc2)ccc2nccn12 [Example 78] | ≤ 500 nM |
| O=C(O)c1c(NCc2cccc(F)c2F)ccc2nccn12 [Example 79] | > 1000 nM |
| O=C(O)c1c(NCc2ccccc2-n2cccn2)ccc2nccn12 [Example 83] | ≤ 500 nM |
| CS(=O)(=O)c1ccccc1CNc1ccc2nccn2c1C(=O)O [Example 84] | ≤ 500 nM |

More lines, now with the values ahead:

| IC50 | Structure (SMILES) |
| --- | --- |
| ≤ 500 nM | COc1ccc(CNc2ccc3nccn3c2C(=O)O)c(OC)c1 [Example 1] |
| 500 to 1000 nM | O=C(O)c1c(NCc2ccc(Cl)c(C(F)(F)F)c2)ccc2nccn12 [Example 3] |
| ≤ 500 nM | O=C(O)c1c(NCc2cccc(Br)c2)ccc2nccn12 [Example 4] |
| ≤ 500 nM | COc1cc(Cl)ccc1CNc1ccc2nccn2c1C(=O)O [Example 8] |
| > 1000 nM | COc1ccc(F)c(CNc2ccc3nccn3c2C(=O)O)c1F [Example 11] |
| > 1000 nM | Cc1cccc(Cl)c1CNc1ccc2nccn2c1C(=O)O [Example 14] |
| > 1000 nM | COc1ccccc1CNc1ccc2nccn2c1C(=O)O [Example 17] |
| > 1000 nM | O=C(O)c1c(NCc2cc(Cl)cc(Cl)c2)ccc2nccn12 [Example 18] |
| > 1000 nM | O=C(O)c1c(NCc2cccc(OC(F)F)c2)ccc2nccn12 [Example 19] |
| > 1000 nM | Cc1c(F)cccc1CNc1ccc2nccn2c1C(=O)O [Example 20] |
| ≤ 500 nM | O=C(O)c1c(NCc2ccc(F)cc2)ccc2nccn12 [Example 23] |
| > 1000 nM | COc1ccc(CNc2ccc3nccn3c2C(=O)O)cc1 [Example 24] |
| > 1000 nM | CC(C)(C)c1ccc(CNc2ccc3nccn3c2C(=O)O)cc1 [Example 25] |
| 500 to 1000 nM | Cc1ccc(Cl)cc1CNc1ccc2nccn2c1C(=O)O [Example 26] |
| > 1000 nM | CC(C)Oc1ccc(CNc2ccc3nccn3c2C(=O)O)cc1 [Example 28] |
| 500 to 1000 nM | O=C(O)c1c(NCc2ccc3occc3c2)ccc2nccn12 [Example 29] |
| > 1000 nM | O=C(O)c1c(NCc2ccc3sccc3c2)ccc2nccn12 [Example 30] |
| 500 to 1000 nM | O=C(O)c1c(NCc2cc(Cl)ccc2Cl)ccc2nccn12 [Example 34] |
| > 1000 nM | Cc1ccc(CNc2ccc3nccn3c2C(=O)O)c(F)c1 [Example 42] |
| ≤ 500 nM | O=C(O)c1c(NCc2ccc(F)c(F)c2)ccc2nccn12 [Example 45] |
| > 1000 nM | COc1c(F)cc(CNc2ccc3nccn3c2C(=O)O)cc1F [Example 46] |
| 500 to 1000 nM | COc1ccc(CNc2ccc3nccn3c2C(=O)O)cc1Cl [Example 47] |

| IC50 | Structure (SMILES) |
| --- | --- |
| > 1000 nM | O=C(O)c1c(NCc2ccc(C(F)(F)F)c(F)c2)ccc2nccn12 [Example 48] |
| > 1000 nM | Cc1ccc(CNc2ccc3nccn3c2C(=O)O)cc1F [Example 49] |
| > 1000 nM | O=C(O)c1c(NCc2cccc(F)c2)ccc2nccn12 [Example 50] |
| ≤ 500 nM | COc1ccc(CNc2ccc3nccn3c2C(=O)O)cc1O [Example 51] |
| > 1000 nM | O=C(O)c1c(NCc2ccc(Cl)cc2F)ccc2nccn12 [Example 56] |
| 500 to 1000 nM | Cc1cc(Cl)ccc1CNc1ccc2nccn2c1C(=O)O [Example 57] |
| > 1000 nM | O=C(O)c1c(NCc2ccc(Cl)c(F)c2)ccc2nccn12 [Example 58] |
| ≤ 500 nM | N#Cc1ccc(CNc2ccc3nccn3c2C(=O)O)cc1 [Example 59] |
| 500 to 1000 nM | Cc1cc(F)ccc1CNc1ccc2nccn2c1C(=O)O [Example 61] |
| 500 to 1000 nM | O=C(O)c1c(NCc2ccc(F)c(C(F)(F)F)c2)ccc2nccn12 [Example 62] |
| > 1000 nM | Cc1cc(CNc2ccc3nccn3c2C(=O)O)ccc1F [Example 63] |
| > 1000 nM | O=C(O)c1c(NCc2cc(Cl)ccc2F)ccc2nccn12 [Example 66] |
| > 1000 nM | Cc1ccc(F)cc1CNc1ccc2nccn2c1C(=O)O [Example 68] |
| 500 to 1000 nM | O=C(O)c1c(NCc2ccc(Cl)cc2Cl)ccc2nccn12 [Example 72] |
| > 1000 nM | O=C(O)c1c(NCc2cc(F)cc(F)c2)ccc2nccn12 [Example 73] |
| > 1000 nM | O=C(O)c1c(NCc2ccc(Cl)cc2)ccc2nccn12 [Example 74] |
| > 1000 nM | COc1cc(CNc2ccc3nccn3c2C(=O)O)ccc1O [Example 75] |
| 500 to 1000 nM | Cn1c(=O)n(C)c2cc(CNc3ccc4nccn4c3C(=O)O)ccc21 [Example 76] |
| 500 to 1000 nM | O=C(O)c1c(NCc2ccc3c(c2)OC(F)(F)O3)ccc2nccn12 [Example 77] |
| > 1000 nM | O=C(O)c1c(NCc2ccc3c(c2)OCCO3)ccc2nccn12 [Example 80] |
| 500 to 1000 nM | O=C(O)c1c(NCc2ccc(F)cc2F)ccc2nccn12 [Example 81] |
| 500 to 1000 nM | O=C(O)c1c(NCc2cc(F)ccc2F)ccc2nccn12 [Example 82] |
